From the supplement of paper PMC8617591

Experiments:
[1] = system: Mycobacterium tuberculosis Erdman (autoluminescent); test: Einf, fitted maximum growth inhibition (fraction); higher = stronger maximal inhibition
Experimental: (§1)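 DiaMOND dose responses (10 doses, 1.5- or 2-fold spacing, equipotent around IC90) of autoluminescent M. tuberculosis Erdman in 8 in vitro models. Read-out is OD600, or luminescence for the intracellular (J774) and dormancy models, background-subtracted and normalised to untreated wells. A 3-parameter Hill fit gives Einf and AUC25 (area to IC25 normalised by IC25); GRinf comes from a Hill fit of the Hafner normalised growth rate. Biological replicates passing QC are averaged. Single drugs only.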

[2] = system: Mycobacterium tuberculosis Erdman (autoluminescent); test: AUC25, normalised area under dose response up to IC25 (fraction (0-1)); higher = more potent at low dose
Experimental: as §1

[3] = system: Mycobacterium tuberculosis Erdman (autoluminescent); test: GRinf, maximum normalised growth rate inhibition (unitless (-1 to 1)); higher = less effect (negative = killing)
Experimental: as §1

COc1nc2ccc(Br)cc2cc1[C@@H](c1ccccc1)[C@@](O)(CCN(C)C)c1cccc2ccccc12 [bedaquiline]
Conditions | AUC25, [2] | Einf, [1] | GRinf, [3]
in vitro model: acidic pH 5.7, time point: constant (~7 days, model-specific) | 0.109 | 0.921 | -0.617
in vitro model: acidic pH 5.7, time point: terminal (~4-5 doublings, model-specific) | 0.0902 | 0.988 | -0.475
in vitro model: intracellular J774, time point: constant = terminal | – | 0.979 | -0.319

Conditions | AUC25, [2] | Einf, [1] | GRinf, [3]
in vitro model: butyrate, time point: constant (~7 days, model-specific) | 0.0777 | 0.964 | -0.167
in vitro model: butyrate, time point: terminal (~4-5 doublings, model-specific) | 0.0609 | 0.984 | -0.138
in vitro model: cholesterol 0.05 mM, time point: constant (~7 days, model-specific) | 0.0895 | 0.766 | -0.328
in vitro model: cholesterol 0.05 mM, time point: terminal (~4-5 doublings, model-specific) | 0.0718 | 0.946 | -0.335
in vitro model: cholesterol-high 0.2 mM, time point: constant (~7 days, model-specific) | 0.0559 | 0.975 | -0.613
in vitro model: cholesterol-high 0.2 mM, time point: terminal (~4-5 doublings, model-specific) | 0.0462 | 1 | -0.647
in vitro model: dormancy (butyrate + nitrate, low O2), time point: constant (~7 days, model-specific) | 0.0618 | 0.908 | 0.184
in vitro model: dormancy (butyrate + nitrate, low O2), time point: terminal (~4-5 doublings, model-specific) | 0.0799 | 0.979 | -0.0503
in vitro model: standard 7H9 glycerol, time point: constant = terminal | 0.0758 | 0.97 | -0.118
in vitro model: valerate, time point: constant (~7 days, model-specific) | 0.0789 | 0.92 | -0.142
in vitro model: valerate, time point: terminal (~4-5 doublings, model-specific) | 0.0549 | 0.963 | -0.0955

CC(C)/N=c1\cc2n(-c3ccc(Cl)cc3)c3ccccc3nc-2cc1Nc1ccc(Cl)cc1 [clofazimine]
Conditions | AUC25, [2] | Einf, [1] | GRinf, [3]
in vitro model: acidic pH 5.7, time point: constant (~7 days, model-specific) | 0.0949 | 0.748 | 0.0361
in vitro model: acidic pH 5.7, time point: terminal (~4-5 doublings, model-specific) | 0.0888 | 0.966 | -0.229
in vitro model: intracellular J774, time point: constant = terminal | – | 0.997 | -0.696

Conditions | AUC25, [2] | Einf, [1] | GRinf, [3]
in vitro model: butyrate, time point: constant (~7 days, model-specific) | 0.0887 | 0.963 | -0.0183
in vitro model: butyrate, time point: terminal (~4-5 doublings, model-specific) | 0.0859 | 0.989 | -0.0492
in vitro model: cholesterol 0.05 mM, time point: constant (~7 days, model-specific) | 0.129 | 0.527 | 0.329
in vitro model: cholesterol 0.05 mM, time point: terminal (~4-5 doublings, model-specific) | 0.13 | 0.844 | 0.0361
in vitro model: cholesterol-high 0.2 mM, time point: constant (~7 days, model-specific) | 0.12 | 0.938 | -0.473
in vitro model: cholesterol-high 0.2 mM, time point: terminal (~4-5 doublings, model-specific) | 0.114 | 1 | -0.945
in vitro model: dormancy (butyrate + nitrate, low O2), time point: constant (~7 days, model-specific) | 0.115 | 0.876 | 0.339
in vitro model: dormancy (butyrate + nitrate, low O2), time point: terminal (~4-5 doublings, model-specific) | 0.0838 | 0.922 | -0.0947
in vitro model: standard 7H9 glycerol, time point: constant = terminal | 0.113 | 0.965 | -0.0492
in vitro model: valerate, time point: constant (~7 days, model-specific) | 0.155 | 0.88 | -0.412
in vitro model: valerate, time point: terminal (~4-5 doublings, model-specific) | 0.0638 | 0.895 | 0.239

CC[C@@H](CO)NCCN[C@@H](CC)CO [ethambutol]
Conditions | AUC25, [2] | Einf, [1] | GRinf, [3]
in vitro model: acidic pH 5.7, time point: constant (~7 days, model-specific) | 0.103 | 0.785 | -0.121
in vitro model: acidic pH 5.7, time point: terminal (~4-5 doublings, model-specific) | 0.0746 | 0.963 | -0.204
in vitro model: intracellular J774, time point: constant = terminal | – | 0.977 | -0.237

Conditions | AUC25, [2] | Einf, [1] | GRinf, [3]
in vitro model: butyrate, time point: constant (~7 days, model-specific) | 0.0706 | 0.86 | 0.144
in vitro model: butyrate, time point: terminal (~4-5 doublings, model-specific) | 0.0701 | 0.918 | 0.173
in vitro model: cholesterol 0.05 mM, time point: constant (~7 days, model-specific) | 0.0906 | 0.621 | 0.0788
in vitro model: cholesterol 0.05 mM, time point: terminal (~4-5 doublings, model-specific) | 0.0751 | 0.907 | -0.193
in vitro model: cholesterol-high 0.2 mM, time point: constant (~7 days, model-specific) | 0.0267 | 0.85 | -0.161
in vitro model: cholesterol-high 0.2 mM, time point: terminal (~4-5 doublings, model-specific) | 0.0346 | 1 | -0.768
in vitro model: dormancy (butyrate + nitrate, low O2), time point: constant (~7 days, model-specific) | 0.0829 | 0.777 | 0.544
in vitro model: dormancy (butyrate + nitrate, low O2), time point: terminal (~4-5 doublings, model-specific) | 0.0685 | 0.914 | 0.295
in vitro model: standard 7H9 glycerol, time point: constant = terminal | 0.0599 | 0.852 | 0.208
in vitro model: valerate, time point: constant (~7 days, model-specific) | 0.0683 | 0.728 | 0.301
in vitro model: valerate, time point: terminal (~4-5 doublings, model-specific) | 0.0665 | 0.832 | 0.297

NNC(=O)c1ccncc1 [isoniazid]
Conditions | AUC25, [2] | Einf, [1] | GRinf, [3]
in vitro model: acidic pH 5.7, time point: constant (~7 days, model-specific) | 0.0571 | 0.674 | 0.0942
in vitro model: acidic pH 5.7, time point: terminal (~4-5 doublings, model-specific) | 0.0392 | 0.933 | -0.101
in vitro model: intracellular J774, time point: constant = terminal | – | 0.932 | -0.113

Conditions | AUC25, [2] | Einf, [1] | GRinf, [3]
in vitro model: butyrate, time point: constant (~7 days, model-specific) | 0.0446 | 0.937 | -0.0682
in vitro model: butyrate, time point: terminal (~4-5 doublings, model-specific) | 0.0452 | 0.981 | -0.137
in vitro model: cholesterol 0.05 mM, time point: constant (~7 days, model-specific) | 0.101 | 0.738 | -0.177
in vitro model: cholesterol 0.05 mM, time point: terminal (~4-5 doublings, model-specific) | 0.0895 | 0.915 | -0.208
in vitro model: cholesterol-high 0.2 mM, time point: constant (~7 days, model-specific) | 0.0813 | 0.905 | -0.466
in vitro model: cholesterol-high 0.2 mM, time point: terminal (~4-5 doublings, model-specific) | 0.0704 | 0.994 | -0.567
in vitro model: dormancy (butyrate + nitrate, low O2), time point: constant (~7 days, model-specific) | 0.0691 | 0.903 | 0.286
in vitro model: dormancy (butyrate + nitrate, low O2), time point: terminal (~4-5 doublings, model-specific) | 0.0601 | 0.982 | -0.0707
in vitro model: standard 7H9 glycerol, time point: constant = terminal | 0.0311 | 0.882 | 0.145
in vitro model: valerate, time point: constant (~7 days, model-specific) | 0.0515 | 0.881 | 0.0138
in vitro model: valerate, time point: terminal (~4-5 doublings, model-specific) | 0.0365 | 0.932 | 0.0316

CC(=O)NC[C@H]1CN(c2ccc(N3CCOCC3)c(F)c2)C(=O)O1 [linezolid]
Conditions | AUC25, [2] | Einf, [1] | GRinf, [3]
in vitro model: acidic pH 5.7, time point: constant (~7 days, model-specific) | 0.105 | 0.813 | -0.255
in vitro model: acidic pH 5.7, time point: terminal (~4-5 doublings, model-specific) | 0.086 | 0.966 | -0.214
in vitro model: intracellular J774, time point: constant = terminal | – | 0.947 | -0.297

Conditions | AUC25, [2] | Einf, [1] | GRinf, [3]
in vitro model: butyrate, time point: constant (~7 days, model-specific) | 0.0921 | 0.894 | 0.0641
in vitro model: butyrate, time point: terminal (~4-5 doublings, model-specific) | 0.0673 | 0.941 | 0.0625
in vitro model: cholesterol 0.05 mM, time point: constant (~7 days, model-specific) | 0.152 | 0.692 | -0.0397
in vitro model: cholesterol 0.05 mM, time point: terminal (~4-5 doublings, model-specific) | 0.152 | 0.927 | -0.195
in vitro model: cholesterol-high 0.2 mM, time point: constant (~7 days, model-specific) | 0.119 | 0.967 | -0.633
in vitro model: cholesterol-high 0.2 mM, time point: terminal (~4-5 doublings, model-specific) | 0.117 | 1 | -0.803
in vitro model: dormancy (butyrate + nitrate, low O2), time point: constant (~7 days, model-specific) | 0.0427 | 0.907 | 0.164
in vitro model: dormancy (butyrate + nitrate, low O2), time point: terminal (~4-5 doublings, model-specific) | 0.0425 | 0.989 | -0.0469
in vitro model: standard 7H9 glycerol, time point: constant = terminal | 0.0679 | 0.904 | 0.0704
in vitro model: valerate, time point: constant (~7 days, model-specific) | 0.106 | 0.912 | -0.0706
in vitro model: valerate, time point: terminal (~4-5 doublings, model-specific) | 0.0701 | 0.948 | -0.0311

COc1c(N2C[C@@H]3CCCN[C@@H]3C2)c(F)cc2c(=O)c(C(=O)O)cn(C3CC3)c12 [moxifloxacin]
Conditions | AUC25, [2] | Einf, [1] | GRinf, [3]
in vitro model: acidic pH 5.7, time point: constant (~7 days, model-specific) | 0.122 | 0.749 | -0.192
in vitro model: acidic pH 5.7, time point: terminal (~4-5 doublings, model-specific) | 0.0782 | 0.96 | -0.226
in vitro model: intracellular J774, time point: constant = terminal | – | 0.957 | -0.212

Conditions | AUC25, [2] | Einf, [1] | GRinf, [3]
in vitro model: butyrate, time point: constant (~7 days, model-specific) | 0.0832 | 0.908 | 0.0408
in vitro model: butyrate, time point: terminal (~4-5 doublings, model-specific) | 0.0522 | 0.957 | 0.0197
in vitro model: cholesterol 0.05 mM, time point: constant (~7 days, model-specific) | 0.116 | 0.629 | -0.0568
in vitro model: cholesterol 0.05 mM, time point: terminal (~4-5 doublings, model-specific) | 0.0909 | 0.881 | -0.0841
in vitro model: cholesterol-high 0.2 mM, time point: constant (~7 days, model-specific) | 0.0781 | 0.824 | -0.195
in vitro model: cholesterol-high 0.2 mM, time point: terminal (~4-5 doublings, model-specific) | 0.0751 | 1 | -0.609
in vitro model: dormancy (butyrate + nitrate, low O2), time point: constant (~7 days, model-specific) | 0.0904 | 0.927 | 0.0805
in vitro model: dormancy (butyrate + nitrate, low O2), time point: terminal (~4-5 doublings, model-specific) | 0.0579 | 0.974 | -0.132
in vitro model: standard 7H9 glycerol, time point: constant = terminal | 0.0856 | 0.913 | 0.00369
in vitro model: valerate, time point: constant (~7 days, model-specific) | 0.105 | 0.878 | -0.00227
in vitro model: valerate, time point: terminal (~4-5 doublings, model-specific) | 0.0529 | 0.936 | 0.0339
